Test systems include UACC-62 melanoma; PC-3 prostate; NCI-H226 lung; EKVX NSCLC; NCI/ADR-RES ovarian; SK-MEL-5 melanoma; 786-0 renal; MDA-N; OVCAR-4 ovarian; A498 renal; DU-145 prostate; HOP-92 NSCLC; OVCAR-5 ovarian; SK-MEL-28 melanoma; SNB-19 CNS; HS 578T breast; HT29 colon; RXF 393 renal.
What all share (assay): NCI-60 cell line screen, 48 h

The source of these data is PubChem BioAssay (NCI).

SMILES strings stand for the structures.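 Five concentrations, 48 hours, 96-well plates. TGI: concentration producing complete growth inhibition.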

Turning to `O=[N+]([O-])/C(C(Cl)=C(Cl)Cl)=C1\Nc2ccc([N+](=O)[O-])cc2N1`, the TGI in the assay with UACC-62 melanoma, in the assay on PC-3 prostate, in the assay on NCI-H226 lung, with EKVX NSCLC, with NCI/ADR-RES ovarian and in the assay on SK-MEL-5 melanoma was greater than 100 µM in each case. Besides, the TGI in the assay on 786-0 renal, in the assay with MDA-N, with OVCAR-4 ovarian, with A498 renal, in the assay on DU-145 prostate and in the assay with HOP-92 NSCLC was greater than 100 µM each time. Besides, the TGI in the assay on OVCAR-5 ovarian, with SK-MEL-28 melanoma and in the assay with SNB-19 CNS was greater than 100 µM throughout.
Turning to `Cc1cccc(N/C(=C(/C(Cl)=C(Cl)Cl)[N+](=O)[O-])n2nnc3ccccc32)c1`, the TGI in the assay on UACC-62 melanoma was 37 µM; in the assay on PC-3 prostate, 30.1 µM; in the assay with NCI-H226 lung, 26.6 µM; with EKVX NSCLC, 39.6 µM; in the assay on NCI/ADR-RES ovarian, 49.4 µM; in the assay with HS 578T breast, 21.8 µM. For the same compound, the TGI in the assay with 786-0 renal turned out to be 35.7 µM; with MDA-N, 64.9 µM; in the assay on OVCAR-4 ovarian, 39.5 µM; in the assay on A498 renal, 25 µM; in the assay with HT29 colon, 33.3 µM; in the assay with OVCAR-5 ovarian, 38 µM. Further, the TGI in the assay with SK-MEL-28 melanoma amounted to 28.1 µM; in the assay with SNB-19 CNS, 34.3 µM.
As for `COc1ccc(NC(=S)Nc2cc(C)ccn2)cc1`, the TGI in the assay with UACC-62 melanoma, in the assay with PC-3 prostate, in the assay with NCI-H226 lung, with EKVX NSCLC, with NCI/ADR-RES ovarian and in the assay on HS 578T breast was greater than 100 µM in each case. Besides, the TGI with SK-MEL-5 melanoma, with RXF 393 renal, in the assay with 786-0 renal, with OVCAR-4 ovarian, in the assay with A498 renal and with DU-145 prostate was greater than 100 µM each time. For the same compound, the TGI in the assay with HT29 colon, in the assay with HOP-92 NSCLC, in the assay on SK-MEL-28 melanoma and in the assay with SNB-19 CNS was greater than 100 µM in each case.
On to `CN(CCC(=O)N1CC(CCl)c2ccc([N+](=O)[O-])cc21)CCC(=O)N1CC(CCl)c2ccc([N+](=O)[O-])cc21` (configuration not stated), for which the TGI with UACC-62 melanoma is 24.7 µM; with PC-3 prostate, greater than 100 µM; in the assay on NCI-H226 lung, greater than 100 µM; in the assay with EKVX NSCLC, 42.7 µM; in the assay on HS 578T breast, 17.7 µM; in the assay with SK-MEL-5 melanoma, 24.8 µM. Further, the TGI in the assay on 786-0 renal is 25 µM; with MDA-N it was 30.9 µM; in the assay on OVCAR-4 ovarian, greater than 100 µM; in the assay with A498 renal, 35.3 µM; with DU-145 prostate, greater than 100 µM; in the assay on HT29 colon it was 24 µM. The TGI is greater than 100 µM in the assay on OVCAR-5 ovarian, 28.9 µM in the assay on SK-MEL-28 melanoma and greater than 100 µM with SNB-19 CNS.
Regarding `COC(=O)C1=CC2C(=O)c3ccccc3C1(c1ccccc1)N2C1CCCCC1` (configuration not stated), the TGI was greater than 100 µM in the assay on PC-3 prostate; 84.1 µM in the assay on NCI-H226 lung; greater than 100 µM in the assay on EKVX NSCLC; greater than 100 µM in the assay with NCI/ADR-RES ovarian; 22 µM in the assay with SK-MEL-5 melanoma; 24.6 µM in the assay with RXF 393 renal. Further, the TGI with 786-0 renal is greater than 100 µM; in the assay on MDA-N it was greater than 100 µM; with OVCAR-4 ovarian it was 91.6 µM; in the assay on A498 renal, greater than 100 µM; in the assay on DU-145 prostate it was greater than 100 µM; with HT29 colon, greater than 100 µM. The TGI is greater than 100 µM in the assay on HOP-92 NSCLC, greater than 100 µM in the assay with OVCAR-5 ovarian, 41.4 µM with SK-MEL-28 melanoma and greater than 100 µM in the assay on SNB-19 CNS.
Turning to `N=c1c2ccccc2nc2oc3cc([N+](=O)[O-])ccc3n12`, the TGI is greater than 100 µM with UACC-62 melanoma; greater than 100 µM with PC-3 prostate; 30.3 µM with NCI-H226 lung; 89 µM with EKVX NSCLC; 74 µM with NCI/ADR-RES ovarian; 50.7 µM in the assay with HS 578T breast. Besides, the TGI in the assay with SK-MEL-5 melanoma was greater than 100 µM; in the assay with RXF 393 renal, 32.5 µM; with 786-0 renal it was 66.3 µM; with MDA-N it was greater than 100 µM; in the assay on OVCAR-4 ovarian, greater than 100 µM; in the assay with HT29 colon, greater than 100 µM. Further, the TGI in the assay with OVCAR-5 ovarian, in the assay with SK-MEL-28 melanoma and in the assay on SNB-19 CNS was greater than 100 µM throughout.
Take `Cc1ccc(-c2c(C#N)c(-c3ccccc3)n(NS(=O)(=O)c3ccc(C)cc3)c(=O)c2C#N)cc1`: the TGI is greater than 100 µM with UACC-62 melanoma; greater than 100 µM in the assay on PC-3 prostate; greater than 100 µM in the assay on NCI-H226 lung; greater than 100 µM in the assay on EKVX NSCLC; greater than 100 µM with NCI/ADR-RES ovarian; 62.5 µM in the assay on SK-MEL-5 melanoma. Also, the TGI in the assay on RXF 393 renal, in the assay with 786-0 renal, with MDA-N, with OVCAR-4 ovarian, in the assay on A498 renal and in the assay on HT29 colon was greater than 100 µM each time. Besides, the TGI in the assay with HOP-92 NSCLC, in the assay with OVCAR-5 ovarian, with SK-MEL-28 melanoma and in the assay with SNB-19 CNS was greater than 100 µM each time.
In the case of `C=CC(C)(C)n1cc(C2=C3OC(=O)C(c4cn(C(C)(C)C=C)c5ccccc45)=C3OC2=O)c2ccccc21`, the TGI in the assay on PC-3 prostate, in the assay on NCI-H226 lung, in the assay on EKVX NSCLC, with NCI/ADR-RES ovarian, in the assay with SK-MEL-5 melanoma and in the assay with RXF 393 renal was greater than 100 µM each time. Also, the TGI in the assay with 786-0 renal, in the assay with MDA-N, with OVCAR-4 ovarian, in the assay on A498 renal, with DU-145 prostate and in the assay with HT29 colon was greater than 100 µM in each case. For the same compound, the TGI in the assay on HOP-92 NSCLC, in the assay on OVCAR-5 ovarian, with SK-MEL-28 melanoma and in the assay with SNB-19 CNS was greater than 100 µM in each case.
Regarding `CCOC(=O)/C(C#N)=C/Nc1c(C)n(C)n(-c2ccccc2)c1=O`, the TGI in the assay with UACC-62 melanoma, in the assay with PC-3 prostate, in the assay with NCI-H226 lung, with EKVX NSCLC, in the assay on NCI/ADR-RES ovarian and in the assay on SK-MEL-5 melanoma was greater than 100 µM throughout. The TGI in the assay on RXF 393 renal, in the assay with 786-0 renal, in the assay on MDA-N, with OVCAR-4 ovarian, in the assay on A498 renal and with DU-145 prostate was greater than 100 µM in each case. Besides, the TGI in the assay on HOP-92 NSCLC and in the assay with OVCAR-5 ovarian was greater than 100 µM throughout.
